Results on five compounds are retold here after US20090318370A1, “NOVEL GLYCOCONJUGATED CHLORIN DERIVATIVES AND METHOD OF PRODUCING THE SAME” (REI Medical Co., Ltd., priority 2007, published 2009).

For the experiment, the system named is HeLa cells. Description: Evaluation of phototoxicity: WST-8 cell viability after light exposure (16 J/cm^2, halogen lamp, 500 nm cut-off filter). The experiment is classed as cell-based. The following applies: light 16 J/cm^2. How it is done: HeLa cells were plated in a 96-well plate to give a concentration of 5×10^3 cells/well (medium volume: 100 μL), and the plate was incubated at 37° C. in 5% CO2 atmosphere for 24 hours. To each well was added 100 μL of a drug solution containing 2% dimethylsulfoxide to give a certain concentration. The plate was further incubated at 37° C. in 5% CO2 atmosphere for 24 hours. Then, the medium was discarded and the cells were washed twice with phosphate buffered saline (100 μL). To each well was added 100 μL of Dulbecco's modified Eagle's medium (DMEM) containing 10% fetal calf serum (FCS). The cells were then exposed to light (16 J/cm^2) from a 100 W halogen lamp equipped with a 500 nm cut-off filter and a water jacket. After that, the plate was further incubated at 37° C. in 5% CO2 for 24 hours. And the plate was subjected to WST-8 assay and cell viability rates were calculated as relative values to those obtained in the absence of drugs. The average values of the result from 6 replicate experiments for each drug were calculated.
The light dose was adjusted by controlling the irradiation time by using a power meter.
WST assay is one of the method to determine the activity of dehydrogenase of cells, in which tetrazolium salt (WST-8) is reduced dependently on the number of viable cells. The amount of the reduction was determined by absorption spectroscopy to provide the relative amount of viable cells.
Phototoxicity were determined for the chlorin derivatives or porphyrin derivatives which were prepared in the above Example and Comparative Example and obtained as production intermediates, and the compound from Reference Example at a drug concentration of 0.5 μM according to the above evaluation method.
For the compounds No. 6 to 9 and 14 to 16 shown in Table 1, phototoxicity was determined at a drug concentration of 0.09 μM according to the above evaluation method.
For orientation: Formazan colour is commonly taken as a measure of viable cells.

[1] abbreviates: drug concentration 0.5 μM, FIG. 3.
The mark [2] stands for this setting: drug concentration 0.09 μM, FIG. 4.

As to “5,10,15,20-tetrakis[4-(2,3,4,6-tetra-O-acetyl-β-D-glucopyranosylthio)-2,3,5,6-tetrafluorophenyl]-2,3-[methano(N-methyl)iminomethano]chlorin [compound 12]”, under setting [1], the “phototoxicity of acetyl-protected compound compared with No. 6, 7, 8, 9 respectively” value is listed as “phototoxicity was disappeared”.
As for `CN1CC2c3nc(c(-c4c(F)c(F)c(F)c(F)c4F)c4ccc([n-]4)c(-c4c(F)c(F)c(F)c(F)c4F)c4nc(c(-c5c(F)c(F)c(F)c(F)c5F)c5ccc([n-]5)c3-c3c(F)c(F)c(F)c(F)c3F)C=C4)C2C1.[Pd+2]` (stereo not drawn) [compound 4, {5,10,15,20-tetrakis(pentafluorophenyl)-2,3-[methano(N-methyl)iminomethano]chlorinato}palladium], under setting [1], the “phototoxicity of metal complex compared with compound No. 3” value is on record as “phototoxicity increased”.
As to `OC[C@H]1O[C@@H](Sc2c(F)c(F)c(-c3c4nc(c(-c5c(F)c(F)c(S[C@@H]6O[C@H](CO)[C@@H](O)[C@H](O)[C@H]6O)c(F)c5F)c5ccc([nH]5)c(-c5c(F)c(F)c(S[C@@H]6O[C@H](CO)[C@@H](O)[C@H](O)[C@H]6O)c(F)c5F)c5nc(c(-c6c(F)c(F)c(S[C@@H]7O[C@H](CO)[C@@H](O)[C@H](O)[C@H]7O)c(F)c6F)c6ccc3[nH]6)C=C5)C=C4)c(F)c2F)[C@H](O)[C@@H](O)[C@@H]1O` [compound 6, 5,10,15,20-tetrakis[4-(β-D-glucopyranosylthio)-2,3,5,6-tetrafluorophenyl]porphyrin, reference compound], the “effect of sugar linkage on phototoxicity” value under setting [2] is reported as “did not result in any improvement effect of phototoxicity”. Further, under setting [1], the “phototoxicity compared with commercially available TPPS (No. 14)” value is recorded as “higher phototoxicity” and the “phototoxicity compared with non-glycoconjugated compound (No. 1, 2, 3, 4 respectively)” value is on record as “higher phototoxicity”.
For `OCC1OC(Sc2c(F)c(F)c(-c3c4nc(c(-c5c(F)c(F)c(SC6OC(CO)C(O)C(O)C6O)c(F)c5F)c5ccc([n-]5)c(-c5c(F)c(F)c(SC6OC(CO)C(O)C(O)C6O)c(F)c5F)c5nc(c(-c6c(F)c(F)c(SC7OC(CO)C(O)C(O)C7O)c(F)c6F)c6ccc3[n-]6)C=C5)C=C4)c(F)c2F)C(O)C(O)C1O.[Pd+2]` [compound 7, {5,10,15,20-tetrakis[4-(β-D-glucopyranosylthio)-2,3,5,6-tetrafluorophenyl]porphyrinato}palladium (II), reference compound], the “effect of sugar linkage on phototoxicity” value under setting [2] was “did not result in any improvement effect of phototoxicity”. For the same compound, under setting [1], the “phototoxicity compared with commercially available TPPS (No. 14)” value is “higher phototoxicity” and the “phototoxicity compared with non-glycoconjugated compound (No. 1, 2, 3, 4 respectively)” value was “higher phototoxicity”.
For the compound `CN1C[C@@H]2c3nc(c(-c4c(F)c(F)c(S[C@@H]5O[C@H](CO)[C@@H](O)[C@H](O)[C@H]5O)c(F)c4F)c4ccc([nH]4)c(-c4c(F)c(F)c(S[C@@H]5O[C@H](CO)[C@@H](O)[C@H](O)[C@H]5O)c(F)c4F)c4nc(c(-c5c(F)c(F)c(S[C@@H]6O[C@H](CO)[C@@H](O)[C@H](O)[C@H]6O)c(F)c5F)c5ccc([nH]5)c3-c3c(F)c(F)c(S[C@@H]5O[C@H](CO)[C@@H](O)[C@H](O)[C@H]5O)c(F)c3F)C=C4)[C@@H]2C1` [compound 8, 5,10,15,20-tetrakis[4-(β-D-glucopyranosylthio)-2,3,5,6-tetrafluorophenyl]-2,3-[methano(N-methyl)iminomethano]chlorin], under setting [2], the “effect of sugar linkage on phototoxicity” value was “distinguished improvement of phototoxicity” and the “phototoxicity compared with O-glycosylated chlorin derivative No. 15” value is “higher phototoxicity”. For the same compound, the “phototoxicity compared with galactose-linked derivative No. 16” value (drug concentration 0.09 μM, FIG. 5) is given as “higher phototoxicity”. For the same compound, under setting [1], the “phototoxicity compared with commercially available TPPS (No. 14)” value is reported as “higher phototoxicity” and the “phototoxicity compared with non-glycoconjugated compound (No. 1, 2, 3, 4 respectively)” value is given as “higher phototoxicity”. Further, for the setting “drug concentration 0.5 μM”, the “phototoxicity compared with No. 6, 7 and No. 15” value is “no difference in phototoxicity”; the “phototoxicity compared with O-glycosylated chlorin derivative No. 15” value is reported as “not any differences in phototoxicity”.
